Source: ChEMBL document CHEMBL5500406, “Discovery of Novel Proteolysis-Targeting Chimera Molecules as Degraders of Programmed Cell Death-Ligand 1 for Breast Cancer Therapy” (J Med Chem, 2024)
Calls of active or inactive are those of the source. No cut-off for these calls is given here.

Assays:
[1] = […] bioavailability in Sprague-Dawley rat at 30 mg/kg, ip measured for 24 hrs by LC-MS/MS analysis; assay type: ADME, organism-based; details: in vivo
[2] = target: Programmed cell death 1 ligand 1 (Mus musculus, UniProt Q9EP73); assay: Binding affinity to mouse PD-L1 assessed as dissociation constant incubated for 15 mins by MST assay
Sequence of Programmed cell death 1 ligand 1 (Q9EP73 whole entry): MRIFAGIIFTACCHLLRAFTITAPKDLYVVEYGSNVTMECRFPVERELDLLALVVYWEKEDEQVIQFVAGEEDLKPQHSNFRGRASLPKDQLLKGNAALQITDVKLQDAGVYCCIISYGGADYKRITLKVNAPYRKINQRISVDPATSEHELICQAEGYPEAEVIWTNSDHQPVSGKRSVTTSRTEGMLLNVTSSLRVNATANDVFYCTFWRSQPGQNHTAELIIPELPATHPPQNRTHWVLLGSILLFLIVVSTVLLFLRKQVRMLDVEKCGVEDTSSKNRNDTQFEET

[3] = target: T1, Protein cereblon/Programmed cell death 1 ligand 1 (Mus musculus) (UniProt Q9EP73+Q8C7D2); assay: PROTAC activity at CRBN/PD-L1 in mouse 4T1 cells assessed as protein degradation at 0.312 uM incubated for 24 hrs in presence of siCRBN by Western blot analysis; assay type: cell-based
T1 sequence (Q8C7D2 whole entry partner): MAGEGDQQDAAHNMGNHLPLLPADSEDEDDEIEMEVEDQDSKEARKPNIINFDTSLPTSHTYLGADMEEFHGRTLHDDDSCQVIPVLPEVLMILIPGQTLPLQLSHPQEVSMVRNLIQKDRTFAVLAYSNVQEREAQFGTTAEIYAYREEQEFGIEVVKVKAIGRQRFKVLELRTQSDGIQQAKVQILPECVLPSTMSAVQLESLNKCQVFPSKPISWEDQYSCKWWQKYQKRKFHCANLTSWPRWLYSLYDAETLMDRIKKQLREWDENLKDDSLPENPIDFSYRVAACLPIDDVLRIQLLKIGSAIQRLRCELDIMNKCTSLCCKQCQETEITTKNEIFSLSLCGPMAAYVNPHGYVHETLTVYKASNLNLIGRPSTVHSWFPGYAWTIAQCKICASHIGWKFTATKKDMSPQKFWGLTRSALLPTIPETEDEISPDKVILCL
T1 sequence (Q9EP73 19-290 limits assumed): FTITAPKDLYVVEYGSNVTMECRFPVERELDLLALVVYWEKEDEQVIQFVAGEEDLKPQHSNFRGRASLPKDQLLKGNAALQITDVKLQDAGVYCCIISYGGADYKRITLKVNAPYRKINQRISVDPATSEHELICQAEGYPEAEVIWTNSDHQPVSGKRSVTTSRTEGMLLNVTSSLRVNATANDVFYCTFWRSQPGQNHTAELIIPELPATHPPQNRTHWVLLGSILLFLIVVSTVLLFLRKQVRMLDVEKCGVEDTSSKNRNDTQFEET

[4] = Tmax in Sprague-Dawley rat at 30 mg/kg, ip measured for 24 hrs by LC-MS/MS analysis; assay type: ADME, organism-based; details: in vivo
[5] = target: T1, Protein cereblon/Programmed cell death 1 ligand 1 (Mus musculus); assay: PROTAC activity at CRBN/PD-L1 in mouse 4T1 cells assessed as protein degradation at 0.078 to 2.5 uM incubated for 24 hrs by Western blot analysis; assay type: cell-based; details: dose 0.078-2.5 µM
[6] = Toxicity in BALB/c mouse allografted with mouse 4T1 cells assessed as pathological change in liver at 60 mg/kg, ip qd for 15 days in presence of Paclitaxel by H and E staining based analysis; assay type: organism-based; details: in vivo, 360 h, time 15 day
[7] = target: T1, Protein cereblon/Programmed cell death 1 ligand 1 (Mus musculus); assay: PROTAC activity at CRBN/PD-L1 in mouse 4T1 cells assessed as reduction in green fluorescence in cell membrane at 0.312 uM incubated for 24 hrs by immunofluorescence analysis; assay type: cell membranes
[8] = tested on: 4T1; assay: Antitumor activity against mouse 4T1 cells assessed as increase in cell mortality rate at 0.078 uM pretreated with compound followed by co-culture of CD3/CD28-activated PBMC cells measured after 24 hrs by LDH assay relative to control; assay type: functional
[9] = tested on: 4T1; assay: Antitumor activity against mouse 4T1 cells allografted in BALB/c mouse at 30 mg/kg, ip qd for 15 days relative to control; assay type: functional; details: 4T1, 360 h, time 15 day, read-out: TGI
[10] = Toxicity in BALB/c mouse allografted with mouse 4T1 cells assessed as pathological change in heart at 30 to 60 mg/kg, ip qd for 15 days by H and E staining based analysis; assay type: organism-based; details: in vivo, 360 h, dose 30-60 mg/kg, time 15 day
[11] = Clearance in Sprague-Dawley rat at 3 mg/kg, iv measured for 24 hrs by LC-MS/MS analysis; assay type: ADME, organism-based; details: in vivo
[12] = Toxicity in BALB/c mouse allografted with mouse 4T1 cells assessed as pathological change in lung at 30 to 60 mg/kg, ip qd for 15 days by H and E staining based analysis; assay type: organism-based; details: in vivo, 360 h, dose 30-60 mg/kg, time 15 day
[13] = Toxicity in BALB/c mouse allografted with mouse 4T1 cells assessed as abnormality in routine blood analysis at 60 mg/kg, ip qd for 15 days in presence of Paclitaxel; assay type: organism-based; details: in vivo, 360 h, time 15 day
[14] = Toxicity in BALB/c mouse allografted with mouse 4T1 cells assessed as abnormality in biochemical analysis at 30 to 60 mg/kg, ip qd for 15 days; assay type: organism-based; details: in vivo, 360 h, dose 30-60 mg/kg, time 15 day
[15] = Toxicity in BALB/c mouse allografted with mouse 4T1 cells assessed as pathological change in spleen at 30 to 60 mg/kg, ip qd for 15 days by H and E staining based analysis; assay type: organism-based; details: in vivo, 360 h, dose 30-60 mg/kg, time 15 day
[16] = tested on: 4T1; assay: Antitumor activity against mouse 4T1 cells allografted in BALB/c mouse assessed as reduction in tumor weight at 30 to 60 mg/kg, ip qd for 15 days; assay type: functional, organism-based; details: dose 30-60 mg/kg, time 15.0 day
[17] = Toxicity in BALB/c mouse allografted with mouse 4T1 cells assessed as body weight loss at 60 mg/kg, ip qd for 15 days in presence of Paclitaxel; assay type: organism-based; details: in vivo, 360 h, time 15 day
[18] = tested on: 4T1; assay: Antitumor activity against mouse 4T1 cells allografted in BALB/c mouse assessed as increase in GzmB mRNA level in tumor at 60 mg/kg, ip qd for 15 days by qRT-PCR analysis; assay type: functional, organism-based; details: time 15.0 day
[19] = Toxicity in BALB/c mouse allografted with mouse 4T1 cells assessed as pathological change in lung at 60 mg/kg, ip qd for 15 days in presence of Paclitaxel by H and E staining based analysis; assay type: organism-based; details: in vivo, 360 h, time 15 day
[20] = tested on: 4T1; assay: Antitumor activity against mouse 4T1 cells allografted in BALB/c mouse assessed as increase in CD8+ T cells infiltration in tumor at 30 to 60 mg/kg, ip qd for 15 days by IHC analysis; assay type: functional, organism-based; details: dose 30-60 mg/kg, time 15.0 day
[21] = Toxicity in BALB/c mouse allografted with mouse 4T1 cells assessed as abnormality in routine blood analysis at 30 to 60 mg/kg, ip qd for 15 days; assay type: organism-based; details: in vivo, 360 h, dose 30-60 mg/kg, time 15 day
[22] = tested on: 4T1; assay: Antitumor activity against mouse 4T1 cells allografted in BALB/c mouse assessed as increase in CD4+ T cells infiltration in tumor at 30 to 60 mg/kg, ip qd for 15 days by IHC analysis; assay type: functional, organism-based; details: dose 30-60 mg/kg, time 15.0 day
[23] = tested on: 4T1; assay: Antitumor activity against mouse 4T1 cells assessed as inhibition of cell viability incubated for 48 hrs by MTT assay; assay type: functional, cell-based; details: 4T1, 48 h
[24] = target: T2, Protein cereblon/Programmed cell death 1 ligand 1 (Homo sapiens) (UniProt Q9NZQ7+Q96SW2); assay: PROTAC activity at CRBN/PD-L1 in human NCI-H2228 cells assessed as protein degradation at >=5 uM measured for 24 hrs by Western blot analysis; assay type: cell-based
T2 sequence (Q96SW2 whole entry, looked up): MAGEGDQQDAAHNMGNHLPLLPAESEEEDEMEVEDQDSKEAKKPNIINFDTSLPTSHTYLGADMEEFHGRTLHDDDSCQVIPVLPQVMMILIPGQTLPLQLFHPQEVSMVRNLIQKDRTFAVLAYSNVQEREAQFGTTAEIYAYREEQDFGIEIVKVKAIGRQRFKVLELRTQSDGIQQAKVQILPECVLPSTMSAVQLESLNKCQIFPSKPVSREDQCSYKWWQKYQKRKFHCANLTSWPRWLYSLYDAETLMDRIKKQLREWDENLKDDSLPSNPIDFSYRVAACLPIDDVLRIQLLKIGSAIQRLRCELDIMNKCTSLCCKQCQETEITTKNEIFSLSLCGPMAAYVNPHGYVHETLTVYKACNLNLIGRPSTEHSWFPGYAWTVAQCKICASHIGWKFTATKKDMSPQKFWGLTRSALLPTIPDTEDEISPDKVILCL
T2 sequence (Q9NZQ7 whole entry, looked up): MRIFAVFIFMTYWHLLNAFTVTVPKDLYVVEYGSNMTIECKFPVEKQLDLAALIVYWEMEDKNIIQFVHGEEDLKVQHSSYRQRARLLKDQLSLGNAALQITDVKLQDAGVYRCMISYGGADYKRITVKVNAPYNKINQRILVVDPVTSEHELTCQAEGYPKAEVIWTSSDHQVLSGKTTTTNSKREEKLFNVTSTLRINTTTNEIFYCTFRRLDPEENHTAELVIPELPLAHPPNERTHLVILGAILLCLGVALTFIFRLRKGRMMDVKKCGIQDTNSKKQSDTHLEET

[25] = target: T2, Protein cereblon/Programmed cell death 1 ligand 1 (Homo sapiens); assay: PROTAC activity at CRBN/PD-L1 in human MDA-MB-231 cells assessed as protein degradation at >=5 uM measured for 24 hrs by Western blot analysis; assay type: cell-based
[26] = Toxicity in BALB/c mouse allografted with mouse 4T1 cells assessed as pathological change in heart at 60 mg/kg, ip qd for 15 days in presence of Paclitaxel by H and E staining based analysis; assay type: organism-based; details: in vivo, 360 h, time 15 day
[27] = Half life in Sprague-Dawley rat at 30 mg/kg, ip measured for 24 hrs by LC-MS/MS analysis; assay type: ADME, organism-based; details: in vivo

For `COc1nc(OCc2cccc(-c3ccccc3)c2C)ccc1CNCCNC(=O)CCCCCCCCNC(=O)COc1ccc(C2CCC(=O)NC2=O)cc1` (configuration not stated), the bioavailability [1] was 71.2%, the Kd [2] was 59.2 µM and the Activity [3] was “inactive”. The Tmax [4] was 2 h, the Activity [5] was “Active” and the Activity [6] was “Non-Toxic”. For the same compound, the Activity [7] was “Active”, the Activity [8] was 31.8% and the inhibition in vivo at 30 mg/kg [9] was 75%. The Activity [10] was “Non-Toxic”, the clearance [11] was 471 mL/min/kg and the Activity [12] was “Non-Toxic”. The Activity [13] was “Non-Toxic”, the Activity [14] was “Non-Toxic” and the Activity [15] was “Non-Toxic”. The Activity [16] was “Active”, the Activity [17] was “Non-Toxic” and the Activity [18] was “Active”. The Activity [19] was “Non-Toxic”, the Activity [20] was “Active” and the Activity [21] was “Non-Toxic”. The Activity [22] was “Active”, the IC50 [23] was 23.1 µM and the Activity [24] was “Active”. For the same compound, the Activity [25] was “Active”, the Activity [26] was “Non-Toxic” and the half-life [27] was 5.3 h.
